“And” between values parts separate entries of the source, which are not always exact repeats. Equal values may be shown once. Inconclusive results and toxic doses are left out. How the source made its calls: active means survival T/C of 150% or more; inactive means T/C below 125% in these data.
System: P388 leukemia ip, CD2F1 mice, survival T/C
Assay: NCI In Vivo Anticancer Drug Screen. Data for tumor model P388 Leukemia (intraperitoneal) in CD2F1 (CDF1) mice
Settings: endpoint: median survival time, higher = longer survival
How it was run: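 Mice carrying the transplanted tumor received test compound or vehicle. Survival was recorded in each group, and the value is the treated-group measurement divided by that of the vehicle-treated control group.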

[1] = dose: 200.0 mg/kg/injection, schedule: Q04DX003 (ip), vehicle: saline with Tween-80
[2] = dose: 400.0 mg/kg/injection, schedule: Q04DX003 (ip), vehicle: saline with Tween-80
[3] = dose: 50.0 mg/kg/injection, schedule: Q01DX009 (ip), vehicle: saline with Tween-80
[4] = dose: 100.0 mg/kg/injection, schedule: Q01DX009 (ip), vehicle: saline with Tween-80
[5] = dose: 200.0 mg/kg/injection, schedule: Q01DX009 (ip), vehicle: saline with Tween-80
[6] = dose: 100.0 mg/kg/injection, schedule: Q04DX002 (ip), vehicle: Klucel (hydroxypropylcellulose) (HPC)
[7] = dose: 200.0 mg/kg/injection, schedule: Q04DX002 (ip), vehicle: Klucel (hydroxypropylcellulose) (HPC)
[8] = dose: 400.0 mg/kg/injection, schedule: Q04DX002 (ip), vehicle: Klucel (hydroxypropylcellulose) (HPC)
[9] = dose: 25.0 mg/kg/injection, schedule: Q01DX009 (ip), vehicle: other
[10] = dose: 50.0 mg/kg/injection, schedule: Q01DX009 (ip), vehicle: saline
[11] = dose: 100.0 mg/kg/injection, schedule: Q01DX009 (ip), vehicle: saline
[12] = dose: 12.5 mg/kg/injection, schedule: Q01DX009 (ip), vehicle: saline with Tween-80
[13] = dose: 25.0 mg/kg/injection, schedule: Q01DX009 (ip), vehicle: saline with Tween-80

Measured: T/C

NC(=O)NC(c1ccc(O)cc1)c1cc2c(cc1O)OCO2 (stereo not drawn)
inactive: dose: 60.0 mg/kg/injection, schedule: Q01DX005 (ip), vehicle: Klucel + Tween-80 86 % of control | dose: 120.0 mg/kg/injection, schedule: Q01DX005 (ip), vehicle: Klucel + Tween-80 86 % of control | dose: 240.0 mg/kg/injection, schedule: Q01DX005 (ip), vehicle: Klucel + Tween-80 86 % of control

O=c1cc(Cc2ccccc2)[nH]c(=S)[nH]1
inactive: dose: 100.0 mg/kg/injection, schedule: Q04DX003 (ip), vehicle: saline with Tween-80 109 % of control | [1] 104 % of control | [2] 100 % of control

CC(C)(C)c1cc(=O)[nH]c(NC(N)=O)n1
inactive: [3] 96 % of control | [4] 90 % of control | [5] 96 % of control

C/C=C(/C)C(=O)O[C@H]1C[C@H](C(C)C)c2cc(C)c(O)cc2[C@H]1C
inactive: dose: 57.5 mg/kg/injection, schedule: Q01DX001 (ip), vehicle: Klucel (hydroxypropylcellulose) (HPC) 100 % of control | dose: 115.0 mg/kg/injection, schedule: Q01DX001 (ip), vehicle: Klucel (hydroxypropylcellulose) (HPC) 97 % of control | dose: 230.0 mg/kg/injection, schedule: Q01DX001 (ip), vehicle: Klucel (hydroxypropylcellulose) (HPC) 99 % of control

CCOC1(NC(=O)N(C)C)CC1
inactive: dose: 50.0 mg/kg/injection, schedule: Q04DX003 (ip), vehicle: saline 103 % of control | dose: 100.0 mg/kg/injection, schedule: Q04DX003 (ip), vehicle: saline 102 % of control | dose: 200.0 mg/kg/injection, schedule: Q04DX003 (ip), vehicle: saline 102 % of control

CCN1c2ccccc2S(=O)(=O)n2c(/C=C/c3ccc(OC)cc3)nnc21
inactive: dose: 100.0 mg/kg/injection, schedule: Q01DX001 (ip), vehicle: saline with Tween-80 90 % of control | dose: 200.0 mg/kg/injection, schedule: Q01DX001 (ip), vehicle: saline with Tween-80 88 % of control

COc1ccc2c(c1)CC(=CO)CC2=O.COc1ccc2c(c1)CC/C(=C/O)C2=O.[Cu]
inactive: dose: 37.5 mg/kg/injection, schedule: Q01DX009 (ip), vehicle: saline with Tween-80 100 % of control | dose: 75.0 mg/kg/injection, schedule: Q01DX009 (ip), vehicle: saline with Tween-80 90 % of control | [4] 95 % of control | dose: 150.0 mg/kg/injection, schedule: Q01DX009 (ip), vehicle: saline with Tween-80 109 % of control | [5] 123 % of control | [1] 91 % of control | [2] 91 % of control

NC(=O)C(CCCCNc1c(C(=O)O)cc([N+](=O)[O-])cc1[N+](=O)[O-])NC(=O)c1ccccc1 (stereo not drawn)
inactive: dose: 60.0 mg/kg/injection, schedule: Q01DX005 (ip), vehicle: saline 100 % of control | dose: 120.0 mg/kg/injection, schedule: Q01DX005 (ip), vehicle: saline 105 % of control | dose: 240.0 mg/kg/injection, schedule: Q01DX005 (ip), vehicle: saline 100 % of control

CNC(=O)OCc1c(COC(=O)NC)c(-c2ccc(Cl)cc2)n(C)c1C
active: dose: 6.25 mg/kg/injection, schedule: Q01DX009 (ip), vehicle: distilled water + Tween-80 155 % of control | dose: 12.5 mg/kg/injection, schedule: Q01DX009 (ip), vehicle: distilled water + Tween-80 150 % of control and 153 % of control

N[C@@H](CSSc1ccccc1C(=O)O)C(=O)O
inactive: [6] 103 % of control | [7] 107 % of control | [8] 105 % of control

Nc1nc(Cl)cc2nsnc12
inactive: dose: 100.0 mg/kg/injection, schedule: Q04DX002 (ip), vehicle: saline 97 % of control | dose: 200.0 mg/kg/injection, schedule: Q04DX002 (ip), vehicle: saline 99 % of control | dose: 400.0 mg/kg/injection, schedule: Q04DX002 (ip), vehicle: saline 95 % of control

Nc1cc2c(cc1C(=O)N1CCc3ccccc31)OCO2
inactive: [9] 106 % of control | dose: 50.0 mg/kg/injection, schedule: Q01DX009 (ip), vehicle: other 100 % of control | dose: 100.0 mg/kg/injection, schedule: Q01DX009 (ip), vehicle: other 97 % of control | dose: 200.0 mg/kg/injection, schedule: Q01DX009 (ip), vehicle: other 90 % of control

O=C(O)C(F)(F)F.O=C(O)C(F)(F)F.O=C(O)C(F)(F)F.O=C(O)C(F)(F)F.[Rh].[Rh]
inactive: dose: 25.0 mg/kg/injection, schedule: Q01DX009 (ip), vehicle: saline 86 % of control | [10] 110 % of control | dose: 50.0 mg/kg/injection, schedule: Q01DX009 (ip), vehicle: suspension in saline 104 % of control | [11] 122 % of control | dose: 100.0 mg/kg/injection, schedule: Q01DX009 (ip), vehicle: suspension in saline 123 % of control

On1cc/c(=N\N=C\c2ccc(N(CCCl)CCCl)cc2)c2ccccc21
inactive: dose: 100.0 mg/kg/injection, schedule: Q04DX003 (ip), vehicle: saline + Tween-80 + alcohol 99 % of control | dose: 200.0 mg/kg/injection, schedule: Q04DX003 (ip), vehicle: saline + Tween-80 + alcohol 106 % of control | dose: 400.0 mg/kg/injection, schedule: Q04DX003 (ip), vehicle: saline + Tween-80 + alcohol 102 % of control

O=c1c2ccccc2[nH]c2cc3c(=O)n4ccccc4nc3cc12
inactive: dose: 30.0 mg/kg/injection, schedule: Q01DX005 (ip), vehicle: saline with Tween-80 94 % of control | dose: 60.0 mg/kg/injection, schedule: Q01DX005 (ip), vehicle: saline with Tween-80 101 % of control and 91 % of control | dose: 120.0 mg/kg/injection, schedule: Q01DX005 (ip), vehicle: saline with Tween-80 93 % of control | dose: 240.0 mg/kg/injection, schedule: Q01DX005 (ip), vehicle: saline with Tween-80 93 % of control

C1CN(CCSSCCN2CCOCC2)CCO1
inactive: [10] 104 % of control | [11] 113 % of control | dose: 200.0 mg/kg/injection, schedule: Q01DX009 (ip), vehicle: saline 109 % of control

CC(=O)/C(=C\c1ccc(Cl)c(Cl)c1)C(=O)CCN(C)C
active: dose: 100.0 mg/kg/injection, schedule: Q01DX005 (ip), vehicle: saline with Tween-80 151 % of control
inactive: dose: 12.5 mg/kg/injection, schedule: Q01DX005 (ip), vehicle: saline 110 % of control and 117 % of control | dose: 25.0 mg/kg/injection, schedule: Q01DX005 (ip), vehicle: saline with Tween-80 117 % of control | dose: 25.0 mg/kg/injection, schedule: Q01DX005 (ip), vehicle: saline 100 % of control and 107 % of control | dose: 50.0 mg/kg/injection, schedule: Q01DX005 (ip), vehicle: saline 110 % of control and 111 % of control

COc1cccc2c1C(=O)c1c(O)c3c(c(O)c1C2=O)CC(O)(C(=O)COc1ccccc1)CC3OC1CC(NC(=O)C(F)(F)F)C(O)C(C)O1 (stereo not drawn)
inactive: dose: 1.56 mg/kg/injection, schedule: Q01DX009 (ip), vehicle: other 98 % of control and 102 % of control | dose: 3.13 mg/kg/injection, schedule: Q01DX009 (ip), vehicle: other 102 % of control and 110 % of control | dose: 12.5 mg/kg/injection, schedule: Q01DX009 (ip), vehicle: other 105 % of control | [9] 114 % of control

COc1ccccc1-n1cc[n+](C)c1/C=N/O
inactive: [12] 86 % of control | [13] 90 % of control | [10] 99 % of control

CCCC(C(CC)CN(C)C)N(C)C (stereo not drawn)
inactive: [3] 101 % of control | [4] 93 % of control

CCN1C=C(C(=O)OC)C(N)=C(C#N)/C1=C\C=C(/C#N)C(=O)OC
inactive: [6] 92 % of control | [7] 101 % of control | [8] 89 % of control

CCOC(=O)CCCCCN(/C=C(\C)CN1c2c(nc(N)[nH]c2=O)NCC1CNc1ccc(C(=O)NC(CCC(=O)O)C(=O)O)cc1)C(C)=O (stereo not drawn)
inactive: dose: 50.0 mg/kg/injection, schedule: Q01DX001 (ip), vehicle: sodium bicarbonate 99 % of control | dose: 100.0 mg/kg/injection, schedule: Q01DX001 (ip), vehicle: sodium bicarbonate 100 % of control | dose: 200.0 mg/kg/injection, schedule: Q01DX001 (ip), vehicle: sodium bicarbonate 100 % of control

CCCCCC(CN(C)C)C(=O)/C=C/c1ccc(Cl)cc1 (stereo not drawn)
inactive: [12] 95 % of control | [13] 96 % of control | [3] 113 % of control

CC(=O)NC(Cc1cccc(F)c1)C(=O)O (stereo not drawn)
inactive: dose: 1.56 mg/kg/injection, schedule: Q01DX009 (ip), vehicle: saline 111 % of control | dose: 3.12 mg/kg/injection, schedule: Q01DX009 (ip), vehicle: saline 106 % of control | dose: 6.25 mg/kg/injection, schedule: Q01DX009 (ip), vehicle: saline 107 % of control and 88 % of control

COc1cccc2c1OC1(N3CCOCC3)CCCCC1C2C[N+](=O)[O-] (stereo not drawn)
inactive: [3] 90 % of control | [4] 93 % of control | [5] 89 % of control
